Measurements as given in ChEMBL document CHEMBL5154911, “Palmatine Derivatives as Potential Antiplatelet Aggregation Agents via Protein Kinase G/Vasodilator-Stimulated Phosphoprotein and Phosphatidylinositol 3-Kinase/Akt Phosphorylation” (J Med Chem, 2022).
Activity calls are given as the source filed them. The calls are words filed in the database; no cut-off is given here.

How the values were obtained:
Mus musculus [1] = test: Antithrombotic activity in BALB/c mouse model of carrageenan-induced thrombus formation assessed as reduced serum P-selectin level at 20 mg/kg, iv measured after 14 days by ELISA; assay type: functional, organism-based; conditions: time 14.0 day
Platelet [2] = test: Inhibition of ADP-induced Akt activation in C57BL/6J mouse platelet assessed as reduction of AKT phosphorylation at Ser473 by western blot analysis; assay type: cell-based
Platelet [3] = test: Inhibition of ADP-induced Akt activation in C57BL/6J mouse platelets assessed as reduction in phosphorylation Akt level at Ser473 at 20 mg/kg, po measured after 2 weeks by western blot analysis; assay type: organism-based
Mus musculus [4] = test: Antiplatelet activity against ADP-induced C57BL/6J mouse platelet aggregation assessed as reduction in integrin alphaIIbbeta3 surface level at 20 mg/kg, po measured after 2 weeks by flow cytometry analysis; assay type: functional, organism-based
[5] = Antiplatelet activity against ADP-induced C57BL/6J mouse platelet aggregation assessed as maximal aggregration rate at 10 uM preincubated for 10 mins followed by ADP addition relative to control; assay type: functional
Mus musculus [6] = test: Antiplatelet activity against ADP-induced C57BL/6J mouse platelet aggregation assessed as inhibition of platelet aggregation at 20 mg/kg, po measured after 2 weeks; assay type: functional, organism-based
Mus musculus [7] = test: Antithrombotic activity in BALB/c mouse model of carrageenan-induced thrombus formation assessed as inhibition of thrombosis rate in tail at 20 mg/kg, iv measured after 14 days; assay type: functional, organism-based; conditions: time 14.0 day
Mus musculus [8] = test: Antiplatelet activity against ADP-induced C57BL/6J mouse platelet aggregation assessed as reduction in P-selectin surface levels at 20 mg/kg, po measured after 2 weeks by flow cytometry analysis; assay type: functional, organism-based
Lung [9] = test: Antithrombotic activity in BALB/c mouse model of carrageenan-induced thrombus formation assessed as reduced thrombus formation in lung at 20 mg/kg, iv measured after 14 days by H and E staining based assay; assay type: functional, organism-based; conditions: time 14.0 day
[10] = Metabolic stability in human liver microsomes assessed as liver intrinsic clearance at 1 uM incubated upto 60 min in presence of NADPH by LC-MS/MS analysis; assay type: ADME, Microsome; conditions: 1 h
[11] = Metabolic stability in CD-1 mouse liver microsomes assessed as liver intrinsic clearance at 1 uM incubated upto 60 min in presence of NADPH by LC-MS/MS analysis; assay type: ADME, Microsome; conditions: 1 h
[12] = Metabolic stability in CD-1 mouse liver microsomes assessed as compound remaining at 1 uM measured after 60 mins in presence of NADPH by LC-MS/MS analysis; assay type: ADME, Microsome; conditions: read-out: Stability
Platelet [13] = test: Inhibition of ADP-induced Akt activation in C57BL/6J mouse platelets assessed as reduction in phosphorylation Akt level at Ser473 at 100 mg/kg, po measured after 2 weeks by western blot analysis; assay type: organism-based
[14] = Metabolic stability in Sprague-Dawley rat liver microsomes assessed as half life at 1 uM incubated upto 60 min in presence of NADPH by LC-MS/MS analysis; assay type: ADME, Microsome
Platelet [15] = test: Antiplatelet activity against ADP-induced C57BL/6J mouse platelet aggregation assessed as reduction on platelet aggregation at 2.5 to 10 uM preincubated for 10 mins followed by ADP addition; assay type: functional, cell-based; conditions: dose 2.5-10 µM, DDE = dose-dependent effect
[16] = Metabolic stability in Sprague-Dawley rat liver microsomes assessed as liver intrinsic clearance at 1 uM incubated upto 60 min in presence of NADPH by LC-MS/MS analysis; assay type: ADME, Microsome; conditions: 1 h
Platelet [17] = test: Antiplatelet activity against ADP-induced C57BL/6J mouse platelet aggregation assessed as reduction in P-selectin surface levels by measuring increase median fluorescence intensities at 10 uM incubated for 10 min by flow cytometry analysis; assay type: functional, cell-based
Lung [18] = test: Antithrombotic activity in BALB/c mouse model of carrageenan-induced thrombus formation assessed as reduced thrombus formation in lung at 100 mg/kg, iv measured after 14 days by H and E staining based assay; assay type: functional, organism-based; conditions: time 14.0 day
[19] = Acute toxicity in Kunming mouse assessed as effect on blood urea nitrogen at 250 to 1000 mg/kg, po measured after 14 days; assay type: organism-based; conditions: in vivo, 336 h, dose 250-1000 mg/kg, time 14 day
[20] = Metabolic stability in CD-1 mouse liver microsomes assessed as microsomal intrinsic clearance at 1 uM incubated upto 60 min in presence of NADPH by LC-MS/MS analysis; assay type: ADME, Microsome; conditions: read-out: CLH
Mus musculus [21] = test: Antiplatelet activity against ADP-induced C57BL/6J mouse platelet aggregation assessed as inhibition of platelet aggregation at 100 mg/kg, po measured after 2 weeks; assay type: functional, organism-based
Mus musculus [22] = test: Antiplatelet activity against ADP-induced C57BL/6J mouse platelet aggregation assessed as reduction in integrin alphaIIbbeta3 surface level at 100 mg/kg, po measured after 2 weeks by flow cytometry analysis; assay type: functional, organism-based
[23] = Metabolic stability in Sprague-Dawley rat liver microsomes assessed as microsomal intrinsic clearance at 1 uM incubated upto 60 min in presence of NADPH by LC-MS/MS analysis; assay type: ADME, Microsome; conditions: read-out: CLH
Platelet [24] = test: Antiplatelet activity against ADP-induced C57BL/6J mouse platelet aggregation assessed as reduction in integrin alphaIIbbeta3 surface levels by measuring increase median fluorescence intensities at 10 uM incubated for 10 min by flow cytometry analysis; assay type: functional, cell-based
Platelet [25] = test: Antiplatelet activity against ADP-induced C57BL/6J mouse platelet aggregation assessed as increase in VASP phosphorylation level at 0.5 to 20 uM by western blotting analysis; assay type: functional, cell-based; conditions: dose 0.5-20 µM
Mus musculus [26] = test: Antiplatelet activity against ADP-induced C57BL/6J mouse platelet aggregation assessed as reduction in P-selectin surface levels at 100 mg/kg, po measured after 2 weeks by flow cytometry analysis; assay type: functional, organism-based
Mus musculus [27] = test: Antithrombotic activity in BALB/c mouse model of carrageenan-induced thrombus formation assessed as inhibition of thrombosis rate in tail at 100 mg/kg, iv measured after 14 days; assay type: functional, organism-based; conditions: time 14.0 day
Mus musculus [28] = test: Antithrombotic activity in BALB/c mouse model of carrageenan-induced thrombus formation assessed as reduced thrombus area in tail at 100 mg/kg, iv measured after 14 days by H and E staining based assay; assay type: functional, organism-based; conditions: time 14.0 day
[29] = Acute toxicity in Kunming mouse assessed as effect on creatine at 250 to 1000 mg/kg, po measured after 14 days; assay type: organism-based; conditions: in vivo, 336 h, dose 250-1000 mg/kg, time 14 day
[30] = Acute toxicity in Kunming mouse assessed as effect on glutamic pyruvic transaminase at 250 to 1000 mg/kg, po measured after 14 days; assay type: organism-based; conditions: in vivo, 336 h, dose 250-1000 mg/kg, time 14 day
[31] = Metabolic stability in human liver microsomes assessed as compound remaining at 1 uM measured after 60 mins in presence of NADPH by LC-MS/MS analysis; assay type: ADME, Microsome; conditions: read-out: Stability
[32] = Metabolic stability in Sprague-Dawley rat liver microsomes assessed as compound remaining at 1 uM measured after 60 mins in presence of NADPH by LC-MS/MS analysis; assay type: ADME, Microsome; conditions: read-out: Stability
[33] = Binding affinity to sensorchip-immobilized PI3K (unknown origin) by surface plasmon resonance analysis; set-up: species or system Homo sapiens
[34] = Acute toxicity in po dosed Kunming mouse assessed as lethal dose measured after 14 days; assay type: organism-based; conditions: in vivo, time 14 day
[35] = Metabolic stability in human liver microsomes assessed as half life at 1 uM incubated upto 60 min in presence of NADPH by LC-MS/MS analysis; assay type: ADME, Microsome
[36] = Cytotoxicity against human HUVEC cells assessed as cell vaibility at 100 uM by MTS assay; assay type: toxicity, cell-based; conditions: read-out: Activity
[37] = Metabolic stability in CD-1 mouse liver microsomes assessed as half life at 1 uM incubated upto 60 min in presence of NADPH by LC-MS/MS analysis; assay type: ADME, Microsome
[38] = Acute toxicity in Kunming mouse assessed as effect on glutamic oxalacetic transaminase at 250 to 1000 mg/kg, po measured after 14 days; assay type: organism-based; conditions: in vivo, 336 h, dose 250-1000 mg/kg, time 14 day
Platelet [39] = test: Inhibition of ADP-induced Akt activation in C57BL/6J mouse platelet assessed as reduction of AKT phosphorylation at Ser473 at 0.5 to 20 uM by western blot analysis; assay type: cell-based; conditions: dose 0.5-20 µM, DDE = dose-dependent effect
[40] = Antiplatelet activity against ADP-induced C57BL/6J mouse platelet aggregation assessed as inhibition of platelet aggregation at 10 uM preincubated for 10 mins followed by ADP addition relative to control; assay type: functional; set-up: scale not given: the % may be the effect or the level left
[41] = Metabolic stability in human liver microsomes assessed as microsomal intrinsic clearance at 1 uM incubated upto 60 min in presence of NADPH by LC-MS/MS analysis; assay type: ADME, Microsome; conditions: read-out: CLH
Mus musculus [42] = test: Antithrombotic activity in BALB/c mouse model of carrageenan-induced thrombus formation assessed as reduced serum P-selectin level at 100 mg/kg, iv measured after 14 days by ELISA; assay type: functional, organism-based; conditions: time 14.0 day

CC(=O)Oc1ccccc1C(=O)O [ASPIRIN]
Activity (Mus musculus [1]): Active
inhibition (Platelet [2]): Active
inhibition (Platelet [3]): Active
Activity (Mus musculus [4]): Active
%max [5]: 26.4%
Activity (Mus musculus [6]): Active
Activity (Mus musculus [7]): Active
Activity (Mus musculus [8]): Active
Activity (Lung [9]): Active

CCCOc1c(OC)ccc2cc3[n+](cc12)CCc1cc(OC)c(OC)cc1-3.[Br-]
CLH [10]: < 8.6 mL/min/kg
CLH [11]: 123 mL/min/kg
inhibition (Platelet [2]): Active
remaining at 1 h, 1 µM [12]: 39%
inhibition (Platelet [13]): Active
half-life at 1 µM [14]: > 145 min
Activity (Platelet [15]): Dde
CLH [16]: < 17.3 mL/min/kg
Activity (Platelet [17]): Active
Activity (Lung [18]): Active
Activity [19]: Non-Toxic
microsomal CLint at 1 µM [20]: 31 µL/min/mg
Activity (Mus musculus [21]): Active
Activity (Mus musculus [22]): Active
microsomal CLint at 1 µM [23]: < 9.6 µL/min/mg
Activity (Platelet [24]): Active
Activity (Platelet [25]): Active
Activity (Mus musculus [26]): Active
inhibition (Mus musculus [27]): Active
%max [5]: 26.9%
inhibition (Mus musculus [28]): Active
Activity [29]: Non-Toxic
Activity [30]: Non-Toxic
remaining at 1 h, 1 µM [31]: 117%
remaining at 1 h, 1 µM [32]: 79%
Kd [33]: 25.5 µM
LD50 at 336 h [34]: 1000 mg/kg
half-life at 1 µM [35]: > 145 min
viability at 100 µM [36]: 90%
half-life at 1 µM [37]: 44.7 min
Activity [38]: Non-Toxic
inhibition (Platelet [39]): Dde
Activity [40]: 37.8%
microsomal CLint at 1 µM [41]: < 9.6 µL/min/mg
Activity (Mus musculus [42]): Active
